Reference: patent US5840684A, “Glycopeptide antibiotic derivatives” (Eli Lilly and Company, priority 1995, dated 1998)
Values after ≈ are worked out from the molar mass of the structure shown.

Tests used:
[1] = test system: Staphylococcus aureus S13E; assay type: cell-based
Protocol: (§1) The MIC's were determined using a standard broth micro-dilution assay.

[2] = test system: Staphylococcus aureus SA1199B; assay type: cell-based
Protocol: as §1

[3] = test system: Entercoccus faecium 180-1; test: broth micro-dilution MIC; assay type: cell-based
Protocol: as §1

Entercoccus faecium 276 = test: broth micro-dilution MIC; assay type: cell-based
Protocol: as §1

[4] = test system: Staphylococcus aureus 446; test: broth micro-dilution MIC; assay type: cell-based
Protocol: as §1

[5] = test system: Staphylococcus aureus 447; test: broth micro-dilution MIC; assay type: cell-based
Protocol: as §1

[6] = test system: Staphylococcus aureus 489; test: broth micro-dilution MIC; assay type: cell-based
Protocol: as §1

[7] = test system: Staphylococcus aureus 491; test: broth micro-dilution MIC; assay type: cell-based
Protocol: as §1

[8] = test system: Staphylococcus aureus SA1199; test: broth micro-dilution MIC; assay type: cell-based
Protocol: as §1

[9] = test system: Staphylococcus aureus X400; test: broth micro-dilution MIC; assay type: cell-based
Protocol: as §1

[10] = test system: Staphylococcus aureus X778; test: broth micro-dilution MIC; assay type: cell-based
Protocol: as §1

[11] = test system: Streptococcus pyogenes C203; test: broth micro-dilution MIC; assay type: cell-based
Protocol: as §1

Entercoccus faecium 180 = test: broth micro-dilution MIC; assay type: cell-based; conditions: Entercoccus faecium 180
Protocol: (§2) The formula I compounds have in vitro and in vivo activity against Gram-positive pathogenic bacteria. The MIC's were determined using a standard broth micro-dilution assay.

Entercoccus faecium 2041 = test: broth micro-dilution MIC; assay type: cell-based; conditions: Entercoccus faecium 2041
Protocol: as §2

[12] = test system: Enterococcus gallinarum 245; test: broth micro-dilution MIC; assay type: cell-based; conditions: Enterococcus gallinarum 245
Protocol: as §2

[13] = test system: Staphylococcus epidermidis 270; test: broth micro-dilution MIC; assay type: cell-based
Protocol: as §2

[14] = test system: Staphylococcus haemolyticus 105; test: broth micro-dilution MIC; assay type: cell-based
Protocol: as §2

[15] = test system: Staphylococcus haemolyticus 415; test: broth micro-dilution MIC; assay type: cell-based
Protocol: as §2

[16] = test system: Streptococcus pneumoniae P1; test: broth micro-dilution MIC; assay type: cell-based
Protocol: as §2

[17] = test system: vancomycin-resistant enterococci; test: broth micro-dilution, mean geometric MIC; assay type: cell-based, Enterococcus faecium and Enterococcus faecalis; conditions: enterococci, 24-hour incubation
[18] = test system: vancomycin-susceptible enterococci; test: broth micro-dilution, mean geometric MIC; assay type: cell-based, Enterococcus faecium and Enterococcus faecalis; conditions: enterococci, 24-hour incubation
[19] = test system: Staphylococcus aureus SA1199A; test: broth micro-dilution MIC; assay type: cell-based
Protocol: as §1

Structure (SMILES) | MIC [1] [µg/mL] | MIC [2] [µg/mL] | MIC [3] [µg/mL] | MIC (Entercoccus faecium 276) [µg/mL] | MIC [4] [µg/mL] | MIC [5] [µg/mL] | MIC [6] [µg/mL] | MIC [7] [µg/mL] | MIC [8] [µg/mL] | MIC [9] [µg/mL] | MIC [10] [µg/mL] | MIC [11] [µg/mL] | MIC (Entercoccus faecium 180) [µg/mL] | MIC [12] [µg/mL] | MIC [13] [µg/mL] | MIC [14] [µg/mL] | MIC [15] [µg/mL] | MIC [16] [µg/mL] | mean geometric MIC, Vancomycin Resistant Strains [17] [µg/mL] | mean geometric MIC, Vancomycin Sensitive Strains [18] [µg/mL] | further results
CNC(CC(C)C)C(=O)NC1C(=O)NC(CC(N)=O)C(=O)NC2C(=O)NC3C(=O)NC(C(=O)NC(C(=O)O)c4cc(O)cc(O)c4-c4cc3ccc4O)C(OC3CC(C)(N)C(O)C(C)O3)c3ccc(c(Cl)c3)Oc3cc2cc(c3OC2OC(CO)C(O)C(O)C2OC2CC(C)(NCc3ccc(OC)c4ccccc34)C(O)C(C)O2)Oc2ccc(cc2Cl)C1O (stereo not drawn) [Compound 15] | 0.5 (≈ 0.284 µM) | 0.25 (≈ 0.142 µM) | ≤ 0.06 | ≤ 0.06 | 1 (≈ 0.567 µM) | 2 (≈ 1.13 µM) | ≤ 0.06 | 0.25 (≈ 0.142 µM) | 0.25 (≈ 0.142 µM) | 0.25 (≈ 0.142 µM) | 0.25 (≈ 0.142 µM) | ≤ 0.06 | 0.5 (≈ 0.284 µM) | ≤ 0.06 | 1 (≈ 0.567 µM) | 0.5 (≈ 0.284 µM) | 2 (≈ 1.13 µM) | ≤ 0.06 | 6.7 | 0.14 | MIC (Entercoccus faecium 2041): ≤ 0.06 µg/mL
CNC(CC(C)C)C(=O)NC1C(=O)NC(CC(N)=O)C(=O)NC2C(=O)NC3C(=O)NC(C(=O)NC(C(=O)O)c4cc(O)cc(O)c4-c4cc3ccc4O)C(OC3CC(C)(N)C(O)C(C)O3)c3ccc(c(Cl)c3)Oc3cc2cc(c3OC2OC(CO)C(O)C(O)C2OC2CC(C)(NCc3cccc(OCc4ccc5ccccc5n4)c3)C(O)C(C)O2)Oc2ccc(cc2Cl)C1O (stereo not drawn) [Compound 125] | 1 (≈ 0.544 µM) | 2 (≈ 1.09 µM) | ≤ 0.06 | 2 (≈ 1.09 µM) | 4 (≈ 2.17 µM) | 2 (≈ 1.09 µM) | 2 (≈ 1.09 µM) | 1 (≈ 0.544 µM) | 0.5 (≈ 0.272 µM) | 1 (≈ 0.544 µM) | 2 (≈ 1.09 µM) | ≤ 0.06 | 1 (≈ 0.544 µM) | 12 (≈ 6.52 µM) | 1 (≈ 0.544 µM) | 4 (≈ 2.17 µM) | 2 (≈ 1.09 µM) | ≤ 0.06 | 3.4 | 0.14 | MIC (Entercoccus faecium 2041): ≤ 0.06 µg/mL
CNC(CC(C)C)C(=O)NC1C(=O)NC(CC(N)=O)C(=O)NC2C(=O)NC3C(=O)NC(C(=O)NC(C(=O)O)c4cc(O)cc(O)c4-c4cc3ccc4O)C(OC3CC(C)(N)C(O)C(C)O3)c3ccc(c(Cl)c3)Oc3cc2cc(c3OC2OC(CO)C(O)C(O)C2OC2CC(C)(NCc3cccc(Oc4ccc(C(F)(F)F)cc4)c3)C(O)C(C)O2)Oc2ccc(cc2Cl)C1O (stereo not drawn) [Compound 132] | 2 (≈ 1.09 µM) | 2 (≈ 1.09 µM) | ≤ 0.06 | 1 (≈ 0.543 µM) | 1 (≈ 0.543 µM) | 2 (≈ 1.09 µM) | 1 (≈ 0.543 µM) | 0.5 (≈ 0.271 µM) | 1 (≈ 0.543 µM) | 1 (≈ 0.543 µM) | 2 (≈ 1.09 µM) | ≤ 0.06 |  | 2 (≈ 1.09 µM) | 2 (≈ 1.09 µM) | 1 (≈ 0.543 µM) | 2 (≈ 1.09 µM) | ≤ 0.06 | 1.2 | 0.048 | MIC (Entercoccus faecium 2041): 1 µg/mL (≈ 0.543 µM)
CNC(CC(C)C)C(=O)NC1C(=O)NC(CC(N)=O)C(=O)NC2C(=O)NC3C(=O)NC(C(=O)NC(C(=O)O)c4cc(O)cc(O)c4-c4cc3ccc4O)C(OC3CC(C)(N)C(O)C(C)O3)c3ccc(c(Cl)c3)Oc3cc2cc(c3OC2OC(CO)C(O)C(O)C2OC2CC(C)(NCc3ccc(OCCOC(C)(C)C)cc3)C(O)C(C)O2)Oc2ccc(cc2Cl)C1O (stereo not drawn) [Compound 154] | 0.25 (≈ 0.139 µM) | 0.25 (≈ 0.139 µM) | ≤ 0.06 | 0.5 (≈ 0.278 µM) | 2 (≈ 1.11 µM) | 2 (≈ 1.11 µM) | 1 (≈ 0.556 µM) | 0.5 (≈ 0.278 µM) | 2 (≈ 1.11 µM) | 2 (≈ 1.11 µM) | 0.5 (≈ 0.278 µM) | ≤ 0.06 | 1 (≈ 0.556 µM) | 4 (≈ 2.22 µM) | 0.5 (≈ 0.278 µM) | 4 (≈ 2.22 µM) | 4 (≈ 2.22 µM) | ≤ 0.06 | 2.8 | 0.072 | 
CCCCCCCCC#CCCCCCCNC1(C)CC(OC2C(Oc3c4cc5cc3Oc3ccc(cc3Cl)C(OC3CC(C)(N)C(O)C(C)O3)C3NC(=O)C(NC(=O)C5NC(=O)C(CC(N)=O)NC(=O)C(NC(=O)C(CC(C)C)NC)C(O)c5ccc(c(Cl)c5)O4)c4ccc(O)c(c4)-c4c(O)cc(O)cc4C(C(=O)O)NC3=O)OC(CO)C(O)C2O)OC(C)C1O (stereo not drawn) [Compound 207] | 8 (≈ 4.41 µM) | 16 (≈ 8.83 µM) | ≤ 0.06 | 0.25 (≈ 0.138 µM) | 8 (≈ 4.41 µM) | 8 (≈ 4.41 µM) | 4 (≈ 2.21 µM) | 1 (≈ 0.552 µM) | 8 (≈ 4.41 µM) | 8 (≈ 4.41 µM) | 8 (≈ 4.41 µM) |  | 1 (≈ 0.552 µM) | 1 (≈ 0.552 µM) | 8 (≈ 4.41 µM) | 8 (≈ 4.41 µM) | 1 (≈ 0.552 µM) | ≤ 0.06 | 1.2 | 0.50 | MIC [19]: 4 µg/mL (≈ 2.21 µM); MIC (Entercoccus faecium 2041): 0.125 µg/mL (≈ 0.069 µM)
CNC(CC(C)C)C(=O)NC1C(=O)NC(CC(N)=O)C(=O)NC2C(=O)NC3C(=O)NC(C(=O)NC(C(=O)O)c4cc(O)cc(O)c4-c4cc3ccc4O)C(OC3CC(C)(N)C(O)C(C)O3)c3ccc(c(Cl)c3)Oc3cc2cc(c3OC2OC(CO)C(O)C(O)C2OC2CC(C)(NCc3ccc(-c4ccc(C)cc4)c(C)c3)C(O)C(C)O2)Oc2ccc(cc2Cl)C1O (stereo not drawn) [Compound 225] | 1 (≈ 0.56 µM) | 2 (≈ 1.12 µM) | ≤ 0.06 |  | 1 (≈ 0.56 µM) | 1 (≈ 0.56 µM) | 2 (≈ 1.12 µM) | 1 (≈ 0.56 µM) | 1 (≈ 0.56 µM) | 1 (≈ 0.56 µM) | 0.5 (≈ 0.28 µM) | ≤ 0.06 | ≤ 0.06 | 4 (≈ 2.24 µM) | 1 (≈ 0.56 µM) | 0.5 (≈ 0.28 µM) | 4 (≈ 2.24 µM) | ≤ 0.06 | 0.63 | 0.072 | MIC (Entercoccus faecium 2041): 0.125 µg/mL (≈ 0.07 µM)
